Assay results: the NIST ThermoML archive (doi:10.1016/j.jct.2017.07.013)

Assay: refractive index (Na D-line) (dimensionless); xn = mol fraction of the nth substance listed
Details: 101.3 kPa, Liquid, Standard Abbe refractometry

CCCC[n+]1ccn(C)c1.O=S(=O)([N-]S(=O)(=O)C(F)(F)F)C(F)(F)F + COC(=O)OC
refractive index
Details	303.15 K	308.15 K	313.15 K	318.15 K	323.15 K
x1 = 0.0512	1.3757	1.3741	1.3744	1.3724	1.3719
x1 = 0.101	1.3844	1.383	1.3836	1.3819	1.3817
x1 = 0.1495	1.3913	1.39	1.3907	1.3892	1.3893
x1 = 0.1945	1.3965	1.3953	1.3959	1.3946	1.3948
x1 = 0.2994	1.4053	1.4042	1.4042	1.403	1.4033
x1 = 0.3999	1.4106	1.4095	1.4089	1.4077	1.4078
x1 = 0.4976	1.4141	1.4131	1.4119	1.4107	1.4106
x1 = 0.5842	1.4165	1.4155	1.414	1.4128	1.4126
x1 = 0.6886	1.4191	1.4181	1.4166	1.4154	1.4149
x1 = 0.7475	1.4204	1.4195	1.418	1.4168	1.4162
x1 = 0.8014	1.4216	1.4207	1.4193	1.4181	1.4172
x1 = 0.889	1.4233	1.4223	1.4208	1.4196	1.4185
x1 = 0.9526	1.4242	1.423	1.4213	1.4199	1.4183
x1 = 1	1.4245	1.4231	1.421	1.4195	1.4173
